Measured values reported in patent publication US12643906B2, “Fused aza-heterocyclic amide compound and use thereof” (CSPC ZHONGQI PHARMACEUTICAL TECHNOLOGY (SHIJIAZHUANG) CO., …, priority 2020, dated 2026).
Where two headings read alike, the source gives them in different places.

Columns and labels:
[1] = biological target: T1, TRKC(G696A) (Homo sapiens, UniProt Q16288, G696A); assay: HTRF kinase inhibition assay, TRKC(G696A); type: biochemical
T1 construct: purchased Bioduro
Experimental: (§1) The compound to be tested with a certain concentration gradient and an enzyme solution were successively added into a plate (kinase buffer (1× kinase buffer (Cisbio, Cat #62EZBFDD), pH 7.5; 5 mM MgCl2, 1 mM DTT) was added into negative control wells), and the compound plate was centrifuged at 1000 rpm for 30 seconds. The plate was sealed and incubated in a Constant Temperature Incubator at 25° C. for 30 min. A substrate solution containing TK-Sub-biotin (Cisbio, Cat #61TKOBL) and ATP (Sigma, Cat #R0441) was prepared, the substrate solution was added into a 384-well plate, and the plate was centrifuged at 1000 rpm for 30 seconds. The plate was sealed and incubated in a Constant Temperature Incubator at 25° C. for 60 min.
(§2) TK antibody and XL665 were diluted, mixed and added into the assay plate, and the plate was centrifuged at 1000 rpm for 30 seconds. The plate was sealed and incubated in a Constant Temperature incubator Incubator at 25° C. for 60 min. The assay plate was placed on an Envision reader for reading.
(§3) Data were fitted in XLFit excel add-in version 5.4.0.8 to obtain IC50 values.

[2] = system: Ba/F3 LMNA-NTRK1-G595R model; conditions: gavage
Experimental: (§4) The cells in the logarithmic growth phase were collected and re-suspending in serum-free culture medium to make the cell concentration at […] cells/mL. The cell suspension was added with equal volume of Matrigel to make the final cell concentration at 3×10^7-5×10^7 cells/mL. The animal model was established by subcutaneously inoculating 0.1 mL of tumor cell suspension in the axilla of the forelimb of NuNu mice (female, 4-6 weeks, Beijing Vital River Laboratory Animal Technology Co., Ltd.) in an amount of 3×10^6-5×10^6 cells/mouse.
(§5) The maximum and the minimum tumor diameters of the xenografts in nude mice were measured using a vernier caliper, and the tumor volume (TV) was calculated according to the formula: V=½×a×b^2, where a and b represent the maximum and minimum diameters of the tumor mass, respectively. Nude mice with appropriate tumor volume were selected and the mice were evenly divided into 7 groups of 6 mice (100-200 mm^3) by tumor volume using a random number method.
(§6) Tumor diameters were measured twice weekly and tumor volume was calculated. […] (where Ti represents the mean tumor volume of a certain administration group on a certain day; TO represents the mean tumor volume of the administration group at the start of administration, Vi represents the mean tumor volume of the vehicle control group on a certain day (same day as Ti) and V0 represents the mean tumor volume of the vehicle control group at the start of administration); • Tumor inhibition rate: at the end of the test, the animals were executed by removing the cervical vertebrae.

[3] = system: Ba/F3 LMNA-NTRK1-G667C model; conditions: 100 mg/kg, gavage
Experimental: as §4, §5, §6

[4] = biological target: T2, TRKB (Homo sapiens, UniProt Q16620); assay: HTRF kinase inhibition assay, TRKB; type: biochemical
T2 construct: purchased Bioduro
Experimental: as §1, §2, §3

[5] = biological target: T3, TRKA(G595R) (Homo sapiens, UniProt P04629, G595R); assay: HTRF kinase inhibition assay, TRKA(G595R); type: biochemical
T3 construct: purchased signalchem
Experimental: as §1
as §2, with “reading. (HTRF 665/615 ratio: signal value at 665 nm/signal value at 615 nm) Inhibition=(rationegative control well−ratiocompound well)/(rationegative control well−ratioenzyme-free control well)×100% 1.3 Data Analysis and Curve Fitting” for “reading.”
as §3

[6] = biological target: T4, Ba/F3 ETV6-NTRK3-G696A (Homo sapiens, UniProt Q16288, G696A, cells depend on it); assay: In vitro cell proliferation inhibition (MTT); type: cell-based, murine; conditions: 72 h, read-out: IC50 Ba/F3 ETV6-NTRK3-G696A
T4 construct: fused on or other part: P41212 (Transcription factor ETV6)
Experimental: • Source of 6 kinds of cell lines for the test: KYinno Biotechnology (Beijing) Co., Ltd. • Cell type: murine B cells • Culture medium: RPMI-1640+10% FB S 2. Test Method
Cells in the logarithmic growth phase were harvested and counted using a […]. The cell suspension with a certain density was pipetted uniformly and seeded into a 96-well plate with each well of 100 μL, and shaken to make the cells uniformly disperse into the wells. 100 μL of compound solution with certain concentration gradient was added into each well, and 3 duplicate wells were set for each concentration. The plate was cultured in a CO2 incubator at 37° C. for 72 h. 20 μL of MTT working solution (5 mg/mL) was added into each well, and the plate was placed at 37° C. for 4 h, and centrifuged at 1000 rpm for 5 min by a plate centrifuge. After 180 μL of culture medium was discarded, the plate was added with 150 μL of DMSO, and mixed well with a microplate shaker, the plate bottom was wiped, and optical density (OD) at 550 nm was detected with a microplate reader.

[7] = biological target: T5, TRKA (Homo sapiens, UniProt P04629); assay: HTRF kinase inhibition assay, TRKA; type: biochemical
T5 construct: purchased Bioduro
Experimental: as §1
as §2, with “reading. (HTRF 665/615 ratio: signal value at 665 nm/signal value at 615 nm) Inhibition=(rationegative control well−ratiocompound well)/(rationegative control well−ratioenzyme-free control well)×100% 1.3 Data Analysis and Curve Fitting” for “reading.”
as §3

[8] = biological target: T6, ALK (Homo sapiens, UniProt Q9UM73); assay: Kinase inhibition assay with fluorescein labeled peptide, ALK; type: biochemical
T6 construct: purchased Carna 08-105
Experimental: Compounds were diluted to a certain concentration in DMSO with 4-fold gradients. The compound with a certain concentration, an enzyme solution and DMSO were added into a 384-well plate, and the plate was incubated at room temperature for 10 min. […] The plate was subjected to reading.

T3 sequence (P04629 33-796 G595R): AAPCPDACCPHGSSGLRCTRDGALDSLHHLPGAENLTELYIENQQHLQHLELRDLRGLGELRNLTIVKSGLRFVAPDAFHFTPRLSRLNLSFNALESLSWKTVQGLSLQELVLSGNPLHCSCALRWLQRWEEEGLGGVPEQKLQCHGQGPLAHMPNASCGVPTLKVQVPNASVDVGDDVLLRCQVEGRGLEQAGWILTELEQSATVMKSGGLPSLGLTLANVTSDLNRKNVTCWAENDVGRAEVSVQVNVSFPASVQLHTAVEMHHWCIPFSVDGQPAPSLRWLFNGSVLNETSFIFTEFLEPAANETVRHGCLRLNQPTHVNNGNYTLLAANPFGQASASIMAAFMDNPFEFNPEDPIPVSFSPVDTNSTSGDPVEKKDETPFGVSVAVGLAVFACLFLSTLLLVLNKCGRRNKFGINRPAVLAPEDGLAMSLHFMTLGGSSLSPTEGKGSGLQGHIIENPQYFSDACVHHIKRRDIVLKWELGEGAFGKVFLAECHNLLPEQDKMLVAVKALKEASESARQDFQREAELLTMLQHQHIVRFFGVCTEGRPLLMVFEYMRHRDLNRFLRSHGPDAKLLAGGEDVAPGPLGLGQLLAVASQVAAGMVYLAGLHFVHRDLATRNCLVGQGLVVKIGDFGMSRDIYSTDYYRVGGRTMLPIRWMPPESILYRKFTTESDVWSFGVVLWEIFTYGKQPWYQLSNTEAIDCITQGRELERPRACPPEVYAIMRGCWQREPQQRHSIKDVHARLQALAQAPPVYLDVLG
T6 sequence (Q9UM73 1058-1620 limits assumed): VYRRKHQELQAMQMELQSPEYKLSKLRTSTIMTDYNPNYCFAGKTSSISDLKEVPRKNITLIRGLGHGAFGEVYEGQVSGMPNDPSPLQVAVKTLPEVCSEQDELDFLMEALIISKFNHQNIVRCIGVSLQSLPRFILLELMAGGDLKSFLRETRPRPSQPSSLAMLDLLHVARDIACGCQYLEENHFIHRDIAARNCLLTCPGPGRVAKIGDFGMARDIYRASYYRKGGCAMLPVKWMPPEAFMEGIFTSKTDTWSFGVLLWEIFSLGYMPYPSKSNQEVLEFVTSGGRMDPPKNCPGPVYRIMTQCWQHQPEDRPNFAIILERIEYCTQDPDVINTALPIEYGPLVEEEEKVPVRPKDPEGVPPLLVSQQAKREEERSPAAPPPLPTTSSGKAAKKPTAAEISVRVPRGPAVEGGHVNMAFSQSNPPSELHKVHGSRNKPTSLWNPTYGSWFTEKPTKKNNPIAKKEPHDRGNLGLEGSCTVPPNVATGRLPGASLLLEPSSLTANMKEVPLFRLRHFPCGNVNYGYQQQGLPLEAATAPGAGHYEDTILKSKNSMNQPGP
T5 sequence (P04629 33-796): as the sequence (P04629 33-796 G595R) above, with R563G counted along it
T4 sequence (Q16288 whole entry G696A, the tested form may be a part): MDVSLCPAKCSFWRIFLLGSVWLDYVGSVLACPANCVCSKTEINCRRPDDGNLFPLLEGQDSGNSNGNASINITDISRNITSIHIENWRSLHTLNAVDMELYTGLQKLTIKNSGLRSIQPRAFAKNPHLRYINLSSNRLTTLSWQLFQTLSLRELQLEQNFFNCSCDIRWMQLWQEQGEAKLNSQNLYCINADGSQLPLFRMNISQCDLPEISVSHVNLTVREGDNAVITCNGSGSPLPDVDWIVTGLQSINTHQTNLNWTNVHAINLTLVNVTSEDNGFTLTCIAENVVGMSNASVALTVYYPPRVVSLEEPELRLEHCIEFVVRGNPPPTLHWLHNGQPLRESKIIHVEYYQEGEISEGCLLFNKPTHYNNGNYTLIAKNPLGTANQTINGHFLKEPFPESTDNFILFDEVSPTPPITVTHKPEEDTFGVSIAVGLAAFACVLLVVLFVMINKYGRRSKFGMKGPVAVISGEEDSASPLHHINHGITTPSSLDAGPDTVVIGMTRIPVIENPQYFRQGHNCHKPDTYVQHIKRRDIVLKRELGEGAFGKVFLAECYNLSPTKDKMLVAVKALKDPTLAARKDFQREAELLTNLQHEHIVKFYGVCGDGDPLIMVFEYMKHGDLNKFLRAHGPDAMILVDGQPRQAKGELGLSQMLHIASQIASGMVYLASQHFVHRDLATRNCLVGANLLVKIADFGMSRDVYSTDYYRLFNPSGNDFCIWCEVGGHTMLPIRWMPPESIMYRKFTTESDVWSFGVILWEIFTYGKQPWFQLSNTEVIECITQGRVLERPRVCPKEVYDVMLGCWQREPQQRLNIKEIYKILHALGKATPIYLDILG
T2 sequence (Q16620 32-822): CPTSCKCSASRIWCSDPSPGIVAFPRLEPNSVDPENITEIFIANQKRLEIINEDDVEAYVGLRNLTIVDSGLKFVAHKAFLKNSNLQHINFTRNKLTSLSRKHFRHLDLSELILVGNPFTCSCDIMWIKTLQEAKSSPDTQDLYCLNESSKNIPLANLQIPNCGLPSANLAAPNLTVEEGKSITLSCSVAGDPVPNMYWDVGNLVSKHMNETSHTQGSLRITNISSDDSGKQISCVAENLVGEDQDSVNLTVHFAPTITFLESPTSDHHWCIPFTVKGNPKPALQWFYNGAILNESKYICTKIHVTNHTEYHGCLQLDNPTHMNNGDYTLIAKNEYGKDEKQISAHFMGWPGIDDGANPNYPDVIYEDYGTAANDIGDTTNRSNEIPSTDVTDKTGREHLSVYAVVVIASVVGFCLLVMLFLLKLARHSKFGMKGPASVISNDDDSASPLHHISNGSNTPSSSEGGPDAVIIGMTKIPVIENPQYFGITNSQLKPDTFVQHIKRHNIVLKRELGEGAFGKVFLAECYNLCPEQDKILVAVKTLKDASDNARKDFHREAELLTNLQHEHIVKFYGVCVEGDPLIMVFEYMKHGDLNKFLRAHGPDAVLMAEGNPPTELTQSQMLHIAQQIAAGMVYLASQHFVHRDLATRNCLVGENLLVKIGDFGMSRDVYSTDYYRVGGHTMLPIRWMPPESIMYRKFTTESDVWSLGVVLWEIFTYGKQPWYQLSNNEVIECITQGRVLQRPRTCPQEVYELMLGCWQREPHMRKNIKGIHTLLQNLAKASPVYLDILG
T1 sequence (Q16288 32-839 G696A): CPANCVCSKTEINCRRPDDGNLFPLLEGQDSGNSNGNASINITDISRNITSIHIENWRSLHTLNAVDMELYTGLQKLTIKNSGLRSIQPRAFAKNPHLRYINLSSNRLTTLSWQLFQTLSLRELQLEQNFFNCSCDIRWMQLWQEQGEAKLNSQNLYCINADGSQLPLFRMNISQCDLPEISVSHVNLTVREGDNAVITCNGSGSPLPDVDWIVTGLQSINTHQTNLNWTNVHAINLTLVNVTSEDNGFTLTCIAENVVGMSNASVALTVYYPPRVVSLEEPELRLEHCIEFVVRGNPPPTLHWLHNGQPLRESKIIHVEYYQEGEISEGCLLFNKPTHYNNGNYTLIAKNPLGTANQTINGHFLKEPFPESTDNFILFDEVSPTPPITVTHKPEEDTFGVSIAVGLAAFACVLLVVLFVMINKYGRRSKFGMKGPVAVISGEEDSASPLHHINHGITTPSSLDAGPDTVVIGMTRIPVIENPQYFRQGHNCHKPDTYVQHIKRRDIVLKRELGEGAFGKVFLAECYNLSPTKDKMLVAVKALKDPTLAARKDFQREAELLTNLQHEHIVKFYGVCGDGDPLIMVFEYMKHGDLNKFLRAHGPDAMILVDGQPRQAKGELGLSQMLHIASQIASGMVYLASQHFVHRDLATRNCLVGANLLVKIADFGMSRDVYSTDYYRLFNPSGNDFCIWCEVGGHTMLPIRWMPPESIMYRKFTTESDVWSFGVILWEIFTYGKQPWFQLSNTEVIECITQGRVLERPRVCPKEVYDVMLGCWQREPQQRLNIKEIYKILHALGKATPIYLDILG

- IC50 [1]: 0.383 nM
- Rate of weight gain (%) ([2]; 50 mg/kg): 10.66%
- Rate of weight gain (%) ([2]; 100 mg/kg): 8.32%
- Rate of weight gain (%) [3]: 8.16%
- IC50 [4]: 0.986 nM
- IC50 [5]: < 0.169 nM
- GI50 [6]: 0.466 nM
- IC50 [7]: 0.236 nM
- IC50 [8]: 22 nM
Compound: O=C(Nc1ccc(N2CCN(C(=O)CO)CC2)cc1)c1cnn2ccc(N3C[C@@H](F)C[C@@H]3c3cc(F)ccc3F)nc12 [Compound 4, 5-((2R,4S)-2-(2,5-difluorophenyl)-4-fluoropyrrolidin-1-yl)-N-(4-(4-(2-hydroxyacetyl)piperazin-1-yl)phenyl)pyrazolo[1,5-a]pyrimidine-3-carboxamide]
- Number of animals (Survival/total) ([2]; 50 mg/kg): (6/6)
- TGI (%) ([2]; 50 mg/kg): 136.9%
- Tumor volume (mm^3) ([2]; 50 mg/kg): 15.7 ± 12.6 mm^3
- Tumor weight ([2]; 50 mg/kg): 0.02 ± 0.01 g
- Tumor weight inhibition rate (%) ([2]; 50 mg/kg): 96.16%
- Number of animals (Survival/total) ([2]; 100 mg/kg): (6/6)
- TGI (%) ([2]; 100 mg/kg): 138.0%
- Tumor volume (mm^3) ([2]; 100 mg/kg): 11.3 ± 9.7 mm^3
- Tumor weight ([2]; 100 mg/kg): 0.02 ± 0.01 g
- Tumor weight inhibition rate (%) ([2]; 100 mg/kg): 96.83%
- Number of animals (Survival/total) [3]: (6/6)
- TGI (%) [3]: 84.0%
- Tumor volume (mm^3) [3]: 197.5 ± 85.4 mm^3
- Tumor weight [3]: 0.21 ± 0.08 g
- Tumor weight inhibition rate (%) [3]: 61.17%
